Assay results published in the NIST ThermoML archive (doi:10.1021/je060271a).

Details: 303.15 K, Liquid, Vibrating tube method

CCCCC(=O)OCC(COC(=O)CCCC)(COC(=O)CCCC)COC(=O)CCCC [pentaerythritol tetrapentanoate]
Details | mass density [kg/m3]
751.89 kPa | 1011.3
752.93 kPa | 1011.3
753.46 kPa | 1011.4
754.85 kPa | 1011.5
756.07 kPa | 1011.3
757.1 kPa | 1011.2
758.15 kPa | 1011.2
759.55 kPa | 1011.4
760.59 kPa | 1011.3
761.46 kPa | 1011.3
762.5 kPa | 1011.4
763.72 kPa | 1011.3
764.76 kPa | 1011.3
765.97 kPa | 1011.4
767.19 kPa | 1011.3
768.22 kPa | 1011.4
769.27 kPa | 1011.3
770.14 kPa | 1011.4
771.18 kPa | 1011.4
772.57 kPa | 1011.4
773.96 kPa | 1011.4
775 kPa | 1011.3
776.04 kPa | 1011.3
777.44 kPa | 1011.4
778.31 kPa | 1011.3
779.51 kPa | 1011.4
781.59 kPa | 1011.4
782.99 kPa | 1011.3
784.03 kPa | 1011.3
785.06 kPa | 1011.2
786.46 kPa | 1011.3
787.68 kPa | 1011.4
788.72 kPa | 1011.4
790.1 kPa | 1011.3
793.58 kPa | 1011.4
796.19 kPa | 1011.4
797.22 kPa | 1011.4
798.28 kPa | 1011.4
799.66 kPa | 1011.4
800.87 kPa | 1011.4
802.26 kPa | 1011.3
803.13 kPa | 1011.3
804.36 kPa | 1011.3
806.1 kPa | 1011.3
807.3 kPa | 1011.2
808.17 kPa | 1011.4
809.57 kPa | 1011.4
810.78 kPa | 1011.4
811.81 kPa | 1011.4
813.39 kPa | 1011.4
814.44 kPa | 1011.4
815.81 kPa | 1011.4
816.86 kPa | 1011.3
818.08 kPa | 1011.4
819.64 kPa | 1011.3
820.86 kPa | 1011.4
822.25 kPa | 1011.3
823.47 kPa | 1011.4
824.68 kPa | 1011.4
826.25 kPa | 1011.3
827.28 kPa | 1011.4
828.32 kPa | 1011.4
830.07 kPa | 1011.4
831.46 kPa | 1011.3
832.68 kPa | 1011.3
834.23 kPa | 1011.4
835.46 kPa | 1011.3
836.32 kPa | 1011.3
837.71 kPa | 1011.3
839.27 kPa | 1011.4
840.67 kPa | 1011.4
841.53 kPa | 1011.4
843.1 kPa | 1011.5
844.31 kPa | 1011.4
846.05 kPa | 1011.4
847.44 kPa | 1011.4
848.82 kPa | 1011.4
850.22 kPa | 1011.5
851.43 kPa | 1011.4
852.99 kPa | 1011.3
854.55 kPa | 1011.4
855.43 kPa | 1011.3
856.64 kPa | 1011.4
858.56 kPa | 1011.4
859.94 kPa | 1011.3
861.33 kPa | 1011.4
862.89 kPa | 1011.4
864.28 kPa | 1011.4
865.5 kPa | 1011.5
866.89 kPa | 1011.3
868.64 kPa | 1011.3
869.85 kPa | 1011.3
871.4 kPa | 1011.4
872.8 kPa | 1011.3
874.36 kPa | 1011.4
875.58 kPa | 1011.4
877.31 kPa | 1011.4
878.7 kPa | 1011.3
880.09 kPa | 1011.4
881.48 kPa | 1011.3
882.37 kPa | 1011.5
884.28 kPa | 1011.4
885.67 kPa | 1011.4
886.88 kPa | 1011.4
888.45 kPa | 1011.5
890 kPa | 1011.4
891.23 kPa | 1011.4
892.79 kPa | 1011.4
894.35 kPa | 1011.5
895.75 kPa | 1011.3
897.31 kPa | 1011.5
899.39 kPa | 1011.5
900.97 kPa | 1011.4
902.17 kPa | 1011.4
903.4 kPa | 1011.4
904.79 kPa | 1011.4
906.87 kPa | 1011.4
908.62 kPa | 1011.4
910 kPa | 1011.4
911.39 kPa | 1011.4
913.13 kPa | 1011.4
914.69 kPa | 1011.5
916.25 kPa | 1011.5
917.82 kPa | 1011.4
919.55 kPa | 1011.4
921.29 kPa | 1011.4
922.68 kPa | 1011.4
924.26 kPa | 1011.5
925.81 kPa | 1011.4
927.54 kPa | 1011.6
929.11 kPa | 1011.4
931.03 kPa | 1011.4
932.76 kPa | 1011.6
934.31 kPa | 1011.4
936.05 kPa | 1011.5
937.62 kPa | 1011.4
939.53 kPa | 1011.5
941.27 kPa | 1011.5
943 kPa | 1011.4
944.4 kPa | 1011.5
946.13 kPa | 1011.4
947.18 kPa | 1011.5
949.26 kPa | 1011.4
950.82 kPa | 1011.4
952.73 kPa | 1011.5
954.48 kPa | 1011.5
956.38 kPa | 1011.4
958.11 kPa | 1011.4
960.21 kPa | 1011.4
961.77 kPa | 1011.5
963.32 kPa | 1011.5
965.24 kPa | 1011.4
967.49 kPa | 1011.5
969.05 kPa | 1011.5
970.44 kPa | 1011.4
972.01 kPa | 1011.5
974.27 kPa | 1011.4
976.34 kPa | 1011.4
977.92 kPa | 1011.4
979.13 kPa | 1011.6
981.39 kPa | 1011.5
983.3 kPa | 1011.5
985.21 kPa | 1011.5
987.46 kPa | 1011.4
989.21 kPa | 1011.5
990.77 kPa | 1011.5
992.34 kPa | 1011.5
994.41 kPa | 1011.4
996.16 kPa | 1011.4
998.06 kPa | 1011.5
1000.1 kPa | 1011.3
1002.1 kPa | 1011.3
1004.3 kPa | 1011.4
1005.9 kPa | 1011.4
1007.8 kPa | 1011.4
1009.4 kPa | 1011.5
1011.3 kPa | 1011.5
1014 kPa | 1011.5
1015.8 kPa | 1011.5
1017.3 kPa | 1011.5
1019.2 kPa | 1011.5
1021.5 kPa | 1011.4
1023.4 kPa | 1011.5
1025.3 kPa | 1011.5
1027.4 kPa | 1011.6
1029.5 kPa | 1011.5
1031.2 kPa | 1011.6
1033.5 kPa | 1011.5
1035.6 kPa | 1011.5
1036.8 kPa | 1011.4
1039.1 kPa | 1011.5
1041.1 kPa | 1011.6
1042.9 kPa | 1011.6
1045 kPa | 1011.5
1047.6 kPa | 1011.6
1049.5 kPa | 1011.5
1051.4 kPa | 1011.4
1053.7 kPa | 1011.5
1055.7 kPa | 1011.5
1058 kPa | 1011.5
1059.7 kPa | 1011.5
1062.2 kPa | 1011.5
1064.4 kPa | 1011.5
1066.7 kPa | 1011.6
1068.7 kPa | 1011.5
1071 kPa | 1011.5
1072.9 kPa | 1011.6
1075.2 kPa | 1011.5
1077.2 kPa | 1011.5
1078.8 kPa | 1011.5
1081.6 kPa | 1011.5
1083.8 kPa | 1011.5
1085.9 kPa | 1011.5
1088 kPa | 1011.6
1090.6 kPa | 1011.6
1092.7 kPa | 1011.6
1095 kPa | 1011.5
1097.4 kPa | 1011.5
1099.5 kPa | 1011.5
1101.7 kPa | 1011.5
1104 kPa | 1011.6
1106.4 kPa | 1011.5
1108.7 kPa | 1011.5
1111.1 kPa | 1011.5
1113.4 kPa | 1011.5
1116 kPa | 1011.5
1117.9 kPa | 1011.5
1120.7 kPa | 1011.6
1122.8 kPa | 1011.6
1124.8 kPa | 1011.5
1127.3 kPa | 1011.5
1129.7 kPa | 1011.5
1132.3 kPa | 1011.6
1134.6 kPa | 1011.7
1137.5 kPa | 1011.5
1139.8 kPa | 1011.6
1141.8 kPa | 1011.5
1144.1 kPa | 1011.7
1147.1 kPa | 1011.4
1149.3 kPa | 1011.6
1151.6 kPa | 1011.6
1153.8 kPa | 1011.5
1156.6 kPa | 1011.6
1159 kPa | 1011.6
1162.2 kPa | 1011.6
1164.3 kPa | 1011.8
1166.9 kPa | 1011.6
1169.3 kPa | 1011.6
1171.7 kPa | 1011.7
1174.3 kPa | 1011.6
1176.6 kPa | 1011.5
1179.2 kPa | 1011.6
1182 kPa | 1011.6
1184.7 kPa | 1011.6
1187.2 kPa | 1011.7
1190.1 kPa | 1011.7
1192.6 kPa | 1011.7
1195.2 kPa | 1011.6
1198.1 kPa | 1011.6
1200.7 kPa | 1011.6
1203.2 kPa | 1011.6
1206.3 kPa | 1011.6
1208.5 kPa | 1011.6
1211.3 kPa | 1011.6
1213.9 kPa | 1011.6
1216.9 kPa | 1011.7
1219.5 kPa | 1011.7
1222.1 kPa | 1011.6
1224.7 kPa | 1011.7
1227.8 kPa | 1011.7
1230.6 kPa | 1011.7
1233.4 kPa | 1011.6
1236.1 kPa | 1011.6
1239.1 kPa | 1011.7
1241.9 kPa | 1011.6
1244.7 kPa | 1011.6
1248 kPa | 1011.6
1250.6 kPa | 1011.7
1253.5 kPa | 1011.6
1256.1 kPa | 1011.6
1259.1 kPa | 1011.6
1262 kPa | 1011.6
1265 kPa | 1011.7
1268.1 kPa | 1011.6
1271 kPa | 1011.6
1274 kPa | 1011.7
1277 kPa | 1011.6
1279.4 kPa | 1011.6
1283 kPa | 1011.7
1286 kPa | 1011.7
1289.1 kPa | 1011.6
1292.6 kPa | 1011.7
1296 kPa | 1011.7
1299.7 kPa | 1011.6
1302.8 kPa | 1011.7
1305.6 kPa | 1011.7
1308.5 kPa | 1011.6
1312.2 kPa | 1011.7
1315 kPa | 1011.8
1318.1 kPa | 1011.7
1321.4 kPa | 1011.7
1324.3 kPa | 1011.7
1327.8 kPa | 1011.6
1331.1 kPa | 1011.7
1334.2 kPa | 1011.8
1337.4 kPa | 1011.6
1340.5 kPa | 1011.6
1343.8 kPa | 1011.7
1347.3 kPa | 1011.8
1350.2 kPa | 1011.7
1354.2 kPa | 1011.7
1357.2 kPa | 1011.6
1360.5 kPa | 1011.7
1363.6 kPa | 1011.7
1367.4 kPa | 1011.7
1371.1 kPa | 1011.7
1373.8 kPa | 1011.7
1377.5 kPa | 1011.7
1381.3 kPa | 1011.8
1384.2 kPa | 1011.7
